# According to patent US7053043B1, “Pharmaceutical compositions comprising synthetic peptide copolymers and methods for preventing and treating GVHD and HVGD” (Yeda Research and Development Co.Ltd., priority 1999, dated 2006):
# What was measured:
# [1] = tested on: function of transplanted thyroids; experiment: Thyroid graft assay for HVGD (125I absorption of thyroid transplanted in kidney capsule); assay type: in vivo, mice
# Method: In this transplantation model for HVGD, thyroid glands from donor mice were transplanted in the kidney's capsules of recipient mice. One week later the transplanted mice were injected with ^125I, and the radioactivity of each kidney (the recipient or the untransplanted kidney) was measured after 20 hours. Δcpm was calculated by subtracting the ^125I absorbance of the untransplanted kidneys from the ^125I absorbance of the recipient kidneys in the same treatment. The mean function index (MFI) for treatment was calculated by dividing the mean Δcpm for the tested (Copolymer 1) treatment by the mean Δcpm for the PBS treatment. P values were obtained by the t test. This assay indicates objectively and quantitatively not only the graft survival, but also the function (iodine absorbance) of the transplanted thyroid tissue (Isakov et al., 1979).
# The transplanted mice were treated daily with Copolymer 1 600 μg/day (300 μg ip+300 μg sc) in PBS solution, starting 7 days before transplantation. The first Cop 1 treatment on day −7 was injected sc in ICFA as a depot dose. Control mice were treated daily with PBS alone and PBS with ICFA on day −7 before transplantation.
# To test the effect of Copolymer 1 treatment on the function of transplanted thyroids in the B10.D2→BALB/c model, thyroid glands from donors B10.D2 were transplanted in the kidney's capsules of BALB/c mice. After one week the transplanted mice were injected with ^125I, and the radioactivity of each kidney was measured 20 hours later. cpm was calculated by subtracting the ^125I absorbance of the untransplanted kidneys from the ^125I absorbance of the recipient kidneys in the same treatment. The mean function index (MFI) for each treatment was calculated by dividing the mean ^125I absorbance of (transplanted kidney-untransplanted kidney) in the tested treatment by the mean ^125I absorbance of (transplanted kidney-untransplanted kidney) in the PBS treatment, as follows: […]
# [2] = tested on: B10.D2 responder spleen cells with irradiated C57BL/6 spleen stimulator cells; experiment: MLR primary assay, Table 1; assay type: cell-based, mice; settings: [3H]-thymidine after 96 hours
# Method: The effect of Copolymer 1 (Batch I) on mixed lymphocyte cultures across major histocompatibility barriers was tested. T cell proliferation was assessed in six different MHC-disparate strain combinations. […] To exclude the possibility that higher concentrations of Copolymer 1 (50–100 μg/well) might be toxic to the responder cells, responder cells from background well and from wells incubated with 25–100 μg/well of Copolymer 1 in the presence of stimulator cells for 72 hours in a primary assay, were rechallenged in a subsequent secondary assay with IL-2 (5,000 U/well).
# [3] = tested on: proliferation of B10.PL (H-2u) responder cells to BALB/c stimulator cells; experiment: Mixed lymphocyte reaction (MLR) across major histocompatibility barriers, B10.PL vs BALB/c; assay type: cell-based, mice; settings: 20 μg/well, Cop 1 Batch I, 1:1 ratio of responder to stimulator cells
# Method: Responder cells for MLR reactions across major histocompatibility barriers were harvested from spleen of non-immunized mice while responder cells for MLR across minor histocompatibility barriers were harvested from mice which were preimmunized with irradiated (30 Gy) 50×10^6 stimulator spleen cells 21 days before. Responder cells (5×10^5 spleen cells per well) were tested for their proliferative response by plating with different amounts (2.5 to 10×10^5) of irradiated stimulator cells, in presence or absence of various peptide inhibitors (10–100 μg per well). Cultures were set up in 200 μl media containing 10% FCS in flat-bottom microtiter plates. After 4 days of incubation, cultures were pulsed with 1 μCi of [^3H]thymidine for an additional 16 hours. Results are represented as mean counts per minute (cpm) thymidine incorporation from triplicate cultures.
# To investigate the feasibility of inhibition of MLR by Copolymer 1, an MLR system was developed in which Copolymer 1 was tested for its ability to inhibit the proliferation of B10.PL (H-2^u) responder cells to stimulator cells of either the same (PL/J) or different (BALB/c) H-2 haplotype. For comparison, the inhibitory MBP Ac 1-11[4A], MBP 35-47, a combination of Ac 1-1[4A]+MBP 35-47, MBP 89-101 and KM-core peptides, described in Schlegel et al. (1994), were used in the MLR experiments.
# The inhibition obtained by Copolymer 1 was similar (in response to minor histocompatibility antigen) or even higher (in response to major histocompatibility antigen) than the inhibition obtained with the combination of the two synthetic peptides Ac 1-11[4A] and MBP 35-47, which specifically bind to the class II molecules I-A^u and the I-E^u, respectively. The molar efficiency of Copolymer 1 of M.W. 6000 is even higher since the molecular weight of the synthetic peptides is 4–5 fold lower.
# [4] = B10.D2 → BALB, H-2d, another experiment (N 5), Cop 1 600 μg/day
# [5] = B10.D2 → BALB/c, H-2d, Cop 1 600 μg, N 10
# [6] = B10PL → PL/J, H-2d, Cop 1 600 μg/day
# [7] = C57BL → BALB, H-2b → H-2d, Cop 1 600 μg/day
# [8] = C57BL → C3H, H-2b, Cop 1 600 μg/day
substance,measurement,setting,value
Glatiramer acetate [Cop 1],"Mean 125I Absorption, Transplanted Kidney (cpm)",[1]; [4],1035 cpm
same,"Mean 125I Absorption, Untransplanted Kidney (cpm)",[1]; [4],137 cpm
same,cpm (transplanted minus untransplanted kidney),[1]; [4],898 cpm
same,"Mean 125I Absorption, Transplanted Kidney (cpm)",[1]; [5],2901 cpm
same,"Mean 125I Absorption, Untransplanted Kidney (cpm)",[1]; [5],450 cpm
same,cpm (transplanted minus untransplanted kidney),[1]; [5],2451 cpm
same,"Mean 125I Absorption, Transplanted Kidney (cpm)",[1]; [6],2009 cpm
same,"Mean 125I Absorption, Untransplanted Kidney (cpm)",[1]; [6],332 cpm
same,cpm (transplanted minus untransplanted kidney),[1]; [6],1677 cpm
same,"Mean 125I Absorption, Transplanted Kidney (cpm)",[1]; [7],10759 cpm
same,"Mean 125I Absorption, Untransplanted Kidney (cpm)",[1]; [7],924 cpm
same,cpm (transplanted minus untransplanted kidney),[1]; [7],9835 cpm
same,"Mean 125I Absorption, Transplanted Kidney (cpm)",[1]; [8],1643 cpm
same,"Mean 125I Absorption, Untransplanted Kidney (cpm)",[1]; [8],281 cpm
same,cpm (transplanted minus untransplanted kidney),[1]; [8],1362 cpm
same,MFI (mean function index),"[1]; folds over PBS treatment, B10.D2 → BALB, H-2d, another experiment (N 5), Cop 1 600 μg/day",5.2
same,MFI (mean function index),"[1]; folds over PBS treatment, B10.D2 → BALB/c, H-2d, Cop 1 600 μg, N 10",3.2
same,MFI (mean function index),"[1]; relative to PBS treatment, B10PL → PL/J, H-2d, Cop 1 600 μg/day",2.5
same,MFI (mean function index),"[1]; relative to PBS treatment, C57BL → BALB, H-2b → H-2d, Cop 1 600 μg/day",3.0
same,MFI (mean function index),"[1]; relative to PBS treatment, C57BL → C3H, H-2b, Cop 1 600 μg/day",2.3
same,Primary Assay cpm,[2]; Cop 1 25 μg/well (Batch I),"15,953 cpm"
same,Primary Assay cpm,[2]; Cop 1 50 μg/well (Batch I),"3,663 cpm"
same,Primary Assay cpm,[2]; Cop 1 100 μg/well (Batch I),283 cpm
same,inhibition of MLR,[3],77%
